Results reported in patent publication US20050244328A1 (priority 2002, published 2005).
Where “and” joins values, the source holds several entries; their conditions need not be identical. Equal entries are not always repeated. Where two headings read alike, the source gives them in different places.

Legend:
Streptococcus = conditions: 1 ppm of ClO2; contact time 15 s; cited from earlier work
Fecal Coliform = test: Fecal coliform kill in ClO2-dosed post clarifier effluent, side stream pilot at WWTP 1 (Membrane Filter SM 9222D)
Pseudomonas aeruginosa = conditions: 1 ppm of ClO2; contact time 60 s; cited from earlier work
M. bahia = test: Bioassay of ClO2 treated WWTP 2 effluent by Laboratory 4, mysid shrimp; assay type: in vivo, Mysidopsis bahia; conditions: grabs Aug. 28, 2002 10:15, 16:00, 22:00, Aug. 29, 2002 09:30
Description: With the success of the above bioassay series that began on Aug. 20, 2002, it was concluded that a third party test was needed to verify research data. Water grabs from the Anastasia Island Treatment Facility, taken on Aug. 28, 2002, were delivered to Laboratory 4, an independent bioassay laboratory. Additional testing of the water sent to Laboratory 4 labs was also forwarded to another contract lab to document the water quality during the sample periods for the bioassays. It should be noted here that the plant was operating under their normal operating conditions and accepting both landfill leachate as well as septic tank and portable toilet waste. These were however pumped into a storage tank and then trickled into the influent stream at the headworks.
The complete toxicological study as reference is included as attachment at the end of this study.
With the successful bioassay conducted by the Laboratory 4 labs, a second series of water samples was taken for the repeat bioassay. These samples were taken on Sep. 11, 2002 and forwarded to Laboratory 4 labs on Sep. 12, 2002 to conduct the bioassay. The results of this test for both the water quality toxicity and the bioassay are illustrated in the Tables 13, 14 and 15.
The complete toxicological results are provided at the end of this study as attachments.

Pediococcus Damnosus = conditions: cited from earlier work

Substance: Chlorine dioxide [ClO2]
- Inactivation in % (Streptococcus): >99.999%
- Fecal Coliform (Fecal Coliform; 1.8 ppm, 5 min contact, pH 7.20, Feb. 6, 2001): <1 #cfu/100 mls
- Fecal Coliform (Fecal Coliform; 1.8 ppm, 5 min contact, pH 7.20, Feb. 7, 2001): <1 #cfu/100 mls
- Fecal Coliform (Fecal Coliform; 2.23 ppm, 5 min contact, pH 7.20, Feb. 6, 2001): <1 #cfu/100 mls
- Fecal Coliform (Fecal Coliform; 2.23 ppm, 5 min contact, pH 7.20, Feb. 7, 2001): <1 #cfu/100 mls
- Fecal Coliform (Fecal Coliform; 3.0 ppm, 5 min contact, pH 7.20, Feb. 6, 2001): <1 #cfu/100 mls
- Fecal Coliform (Fecal Coliform; 3.0 ppm, 5 min contact, pH 7.20, Feb. 7, 2001): <1 #cfu/100 mls
- Fecal Coliform (Fecal Coliform; 3.97 ppm, 5 min contact, pH 7.20, Feb. 6, 2001): <1 #cfu/100 mls
- Fecal Coliform (Fecal Coliform; 3.97 ppm, 5 min contact, pH 7.20, Feb. 7, 2001): <1 #cfu/100 mls
- Fecal Coliform (Fecal Coliform; 5% chlorite solution, ClO2 dose rate 3.0 mg/ltr, 5 minute contact, Jan. 24, 2001): <1 #cfu/100 mls
- Fecal Coliform (Fecal Coliform; 5.0 ppm, 5 min contact, pH 7.20, Feb. 6, 2001): <1 #cfu/100 mls
- Fecal Coliform (Fecal Coliform; 5.0 ppm, 5 min contact, pH 7.20, Feb. 7, 2001): <1 #cfu/100 mls
- Fecal Coliform (Fecal Coliform; Injector 1.8 ppm, 5 min contact, pH 7.30, Feb. 5, 2001): <1 #cfu/100 mls
- Fecal Coliform (Fecal Coliform; Injector 2.23 ppm, 5 min contact, pH 7.30, Feb. 5, 2001): <1 #cfu/100 mls
- Fecal Coliform (Fecal Coliform; Injector 3.0 ppm, 5 min contact, pH 7.30, Feb. 5, 2001): <1 #cfu/100 mls
- Fecal Coliform (Fecal Coliform; Injector 3.97 ppm, 5 min contact, pH 7.30, Feb. 5, 2001): <1 #cfu/100 mls
- Fecal Coliform (Fecal Coliform; Injector 5.0 ppm, 5 min contact, pH 7.30, Feb. 5, 2001, (*) bits of algae in samples): 1 (*) #cfu/100 mls and <1 #cfu/100 mls
- dosing rate at which fecal coliform kills were also achieved (as low as) (Fecal Coliform; further testing): 0.075 ppm
- fecal coliform kill (Fecal Coliform; lower dosing rate of 1.8 ppm): effectively killed
- time required for a complete fecal kill (Fecal Coliform; lower dosing rates): more than 2 minutes
- Inactivation in % (Pseudomonas aeruginosa): >99.999%
- Sample survival % of M. bahia (M. bahia; 6.25 % Effluent): 100%
- Sample survival % of M. bahia (M. bahia; 12.5 % Effluent): 95% and 100%
- Sample survival % of M. bahia (M. bahia; 25 % Effluent): 100%
- Sample survival % of M. bahia (M. bahia; 50 % Effluent): 95% and 100%
- Sample survival % of M. bahia (M. bahia; 100 % Effluent): 100%
- Inactivation in % (Pediococcus Damnosus; 0.15 ppm of ClO2, contact time 20 min): 99.99%
- Inactivation in % (Pediococcus Damnosus; 0.3 ppm of ClO2, contact time 5 min): 99.99%
- Inactivation in % (Pediococcus Damnosus; 1 ppm of ClO2, contact time 5 min): 99.999%
